What all share (experiment): NCI-60 cell line screen, 48 h
Assay [1] concerns HOP-92.
Assay [2] deals with OVCAR-3.
For assay [3], the system named is NCI-H460.
In assay [4] the test system is IGROV-1.
The test system of assay [5] is RXF 393.
In assay [6] the test system is K562.
For assay [7], the system named is SNB-19.
For assay [8], the system named is U-251.
The test system of assay [9] is COLO 205.
Assay [10] deals with OVCAR-4.
The subject of assay [11] is SK-OV-3.
The test system of assay [12] is Malme-3M.
The test system of assay [13] is SNB-75.
The subject of assay [14] is SN12C.
The test system of assay [15] is RPMI-8226.
The subject of assay [16] is MOLT-4.
The test system of assay [17] is HT-29.
For assay [18], the system named is SK-MEL-2.
The subject of assay [19] is OVCAR-5.

Here are results for eleven compounds from ChEMBL document CHEMBL1201862, “PubChem BioAssay data set” (2004).

Where a name gives a salt, the structure may show the parent alone.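 Cells were grown in 96-well plates and exposed to each compound for 48 hours at five concentrations; endpoints were interpolated linearly between bracketing concentrations, or set to the highest concentration if not reached. GI50 marks 50% less growth.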 The source made the active and inactive calls. Rule as the data show it: active = GI50 up to about 1.1 µM and inactive = higher.

For the compound `COC[C@@H](/N=C/N1CCc2cc(OC)c(OC)cc2C1)C(C)(C)C`, the GI50 in assay [1], in [2], in assay [3], in [4], in [5] and in assay [6] was > 100 µM (inactive) in each case. The GI50 in assay [7], in assay [8], in [9], in assay [10], in assay [11] and in assay [12] was > 100 µM (inactive) each time. Also, the GI50 in [13], in assay [14], in [15], in [16] and in assay [17] was > 100 µM (inactive) throughout.
Turning to `O=C1NC(c2ccccc2)(c2ccccc2)C(=O)N1CCCCCCN1C(=O)NC(c2ccccc2)(c2ccccc2)C1=O`, the GI50 is 15.7 µM (inactive) in assay [18]; 4.83 µM (inactive) in assay [1]; > 100 µM (inactive) in [19]; 83.2 µM (inactive) in [2]; > 100 µM (inactive) in [3]; 74 µM (inactive) in assay [4]. The GI50 in assay [6] was 52.8 µM (inactive); in assay [7] it was 12.2 µM (inactive); in assay [8], 27.7 µM (inactive); in assay [9], > 100 µM (inactive); in assay [10] it was 4.52 µM (inactive); in assay [11], 26.9 µM (inactive). The GI50 in [12] was 22.5 µM (inactive); in assay [13], 4.79 µM (inactive); in assay [14] it was 58.1 µM (inactive); in assay [15] it was > 100 µM (inactive); in assay [16], > 100 µM (inactive); in assay [17], 45.8 µM (inactive).
On to `O=c1cc(-c2ccccc2)oc2cc(O)cc(O)c12` [CHRYSIN], for which the GI50 in assay [18] was 17.9 µM (inactive); in assay [1] it was 16.4 µM (inactive); in assay [19], 18.6 µM (inactive); in [2], 28.8 µM (inactive); in assay [3], 14.2 µM (inactive); in assay [4], > 10 µM (inactive). In addition, the GI50 in assay [6] is 22.8 µM (inactive); in assay [7], 18.5 µM (inactive); in [8] it was 21.7 µM (inactive); in assay [9], 18.5 µM (inactive); in assay [10], 29.8 µM (inactive); in assay [11] it was 27.9 µM (inactive). Moreover, the GI50 was 24.3 µM (inactive) in assay [12]; 10.3 µM (inactive) in assay [13]; 17.9 µM (inactive) in [14]; 16 µM (inactive) in [15]; 18.3 µM (inactive) in [16]; 23.4 µM (inactive) in [17].
As for `CCN1CCC(O)(c2ccc(Cl)cc2)C(C(=O)c2ccc(Cl)cc2)C1` (configuration not stated), the GI50 in assay [18], in assay [1], in assay [19], in assay [2], in assay [3] and in assay [4] was > 100 µM (inactive) each time. Moreover, the GI50 in assay [5], in assay [6], in assay [7], in assay [8], in assay [9] and in [10] was > 100 µM (inactive) in each case. The GI50 was > 100 µM (inactive) in [11]; 42 µM (inactive) in assay [13]; > 100 µM (inactive) in assay [14]; 24.4 µM (inactive) in assay [15]; > 100 µM (inactive) in [16]; > 100 µM (inactive) in assay [17].
With `CN(C)c1cccc2c(S(=O)(=O)NCCCNCCN)cccc12`, the GI50 is 25.9 µM (inactive) in [18]; 34.4 µM (inactive) in assay [1]; 38.1 µM (inactive) in [19]; 62.5 µM (inactive) in assay [2]; 62.4 µM (inactive) in assay [3]; 67.9 µM (inactive) in [4]. The GI50 in assay [5] is 36.8 µM (inactive); in assay [6], 20.8 µM (inactive); in assay [7], > 100 µM (inactive); in assay [8], 29 µM (inactive); in assay [9], 17.6 µM (inactive); in [10], 55.2 µM (inactive). Besides, the GI50 was 46.9 µM (inactive) in assay [11]; 61.5 µM (inactive) in assay [12]; 13.6 µM (inactive) in assay [13]; 78 µM (inactive) in assay [14]; 18.6 µM (inactive) in assay [16]; 25.9 µM (inactive) in [17].
For `O=C(N/C(=C\c1cccc([N+](=O)[O-])c1)c1nc2cc([N+](=O)[O-])ccc2[nH]1)c1ccccc1`, the GI50 was 24.3 µM (inactive) in [18]; 21.4 µM (inactive) in assay [1]; 73.3 µM (inactive) in [19]; 40.6 µM (inactive) in assay [2]; 21.4 µM (inactive) in [4]; 12.8 µM (inactive) in assay [5]. For the same compound, the GI50 in assay [6] was 25.1 µM (inactive); in assay [7], 45.4 µM (inactive); in [8], 40.7 µM (inactive); in assay [9], 35.6 µM (inactive); in assay [10] it was 19.5 µM (inactive); in assay [11], 71.3 µM (inactive). The GI50 was 48.2 µM (inactive) in assay [12], 39.4 µM (inactive) in assay [14], 12.2 µM (inactive) in assay [16] and 44.4 µM (inactive) in assay [17].
For the compound `C#Cc1cccc(Nc2ncnc3cc(OCCOC)c(OCCOC)cc23)c1` [ERLOTINIB HYDROCHLORIDE], the GI50 is 4.11 µM (inactive) in assay [18]; 4.05 µM (inactive) in assay [1]; > 100 µM (inactive) in [19]; 2.31 µM (inactive) in assay [3]; 0.0857 µM (active) in assay [4]; < 0.01 µM (active) in assay [7]. Further, the GI50 in assay [8] was 29.4 µM (inactive); in assay [9], 4.99 µM (inactive); in [10], 27.2 µM (inactive); in assay [11] it was 0.286 µM (active); in [13], 14.8 µM (inactive); in assay [14], < 0.01 µM (active). The results for the GI50 in assay [15] and in assay [17] were 55.3 µM (inactive) and 27.2 µM (inactive), respectively.
Take `O=[N+]([O-])/C=C/c1ccc(Cl)cc1Cl`: the GI50 in assay [18] is 20.3 µM (inactive); in [1], 15.3 µM (inactive); in assay [19] it was 17.8 µM (inactive); in assay [2], 19.9 µM (inactive); in assay [3] it was 17.9 µM (inactive); in assay [4], 14.8 µM (inactive). Moreover, the GI50 in assay [6] is 3.33 µM (inactive); in assay [7] it was 17.8 µM (inactive); in assay [8], 5.66 µM (inactive); in [9] it was 21.2 µM (inactive); in assay [10], 19.8 µM (inactive); in [12], 17.8 µM (inactive). For the same compound, the GI50 in [13] was 20.4 µM (inactive); in assay [15] it was 2.44 µM (inactive); in [16], 15.8 µM (inactive); in assay [17], 5.77 µM (inactive).
For `CNS(=O)(=O)NNS(=O)(=O)c1ccc2ccccc2c1`, the GI50 in assay [18] was > 100 µM (inactive); in assay [19], > 100 µM (inactive); in assay [2], > 100 µM (inactive); in [3] it was 40.2 µM (inactive); in assay [4], > 100 µM (inactive); in assay [6] it was > 100 µM (inactive). The GI50 in [7], in assay [8], in [9], in assay [10], in assay [11] and in [12] was > 100 µM (inactive) throughout. Also, the GI50 in assay [13], in assay [14], in [15], in [16] and in assay [17] was > 100 µM (inactive) in each case.
Take `COC(=O)/C=C1/CCC2[C@@H](C(=O)CC3[C@]2(C)CCC[C@@]3(C)C(=O)OC)C1C` (some centres not stated): the GI50 in assay [18] is 16 µM (inactive); in assay [1] it was 5.13 µM (inactive); in assay [19] it was 20 µM (inactive); in assay [2], 7.67 µM (inactive); in assay [3], 14.2 µM (inactive); in [4], 20.2 µM (inactive). In addition, the GI50 in assay [6] is 3.18 µM (inactive); in assay [7], 17.4 µM (inactive); in [8] it was 15.4 µM (inactive); in assay [9], 5.57 µM (inactive); in [10], 8.73 µM (inactive); in assay [11] it was 30.9 µM (inactive). Also, the GI50 is 16.1 µM (inactive) in assay [12]; 8.99 µM (inactive) in assay [13]; 15.3 µM (inactive) in [14]; 2.98 µM (inactive) in [15]; 4.04 µM (inactive) in assay [16]; 5.64 µM (inactive) in [17].
As for `Cc1ccccc1C(C#N)/C(=N/NC(=O)C(=O)NN)C(=O)Nc1cccc(C(F)(F)F)c1` (configuration not stated), the GI50 in assay [18], in [1], in assay [19], in assay [2], in assay [3] and in assay [4] was > 100 µM (inactive) each time. The GI50 in assay [6], in assay [7], in [8], in assay [9], in assay [10] and in assay [12] was > 100 µM (inactive) throughout. The GI50 in [13] is 49.8 µM (inactive); in assay [14] it was > 100 µM (inactive); in assay [15], > 100 µM (inactive); in assay [16], > 100 µM (inactive); in assay [17], > 100 µM (inactive).
